# Measured values published in PubChem BioAssay AID1963838 (Molecular Pharmacology Branch, DTP, NCI, 2024).
# Tested on: 855422-203-R-J1-PDC complex spheroid viability
# Test: Anticancer human tumor 855422-203-R-J1-PDC patient-derived bladder carcinoma cell line growth inhibition [POLQ]
# Settings: for IC50: curve of first compound; for viability, T/C: stronger effect = lower value
# Procedure, shortened: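 Patient-derived tumour cells were co-cultured with HUVEC and mesenchymal stem cells as multicellular spheroids at 37 °C. They were treated with POLQ inhibitors (novobiocin, ART-558, RP6685) alone or combined with other agents. Top concentrations were at or near clinical Cmax (otherwise 10 microM; SN-38 at 1 microM), decreasing in half-log steps.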
# [1] = second compound 0.0316 µM, first compound 0.0316 µM
# [2] = second compound 0.0316 µM, first compound 0.1 µM
# [3] = second compound 0.0316 µM, first compound 0.316 µM
# [4] = second compound 0.0316 µM, first compound 1 µM
# [5] = second compound 0.0316 µM, first compound 3.16 µM
# [6] = second compound 0.0316 µM, first compound 10 µM
# [7] = second compound 0.1 µM, first compound 0.0316 µM
# [8] = second compound 0.1 µM, first compound 0.1 µM
# [9] = second compound 0.1 µM, first compound 0.316 µM
# [10] = second compound 0.1 µM, first compound 1 µM
# [11] = second compound 0.1 µM, first compound 3.16 µM
# [12] = second compound 0.1 µM, first compound 10 µM
# [13] = second compound 0.316 µM, first compound 0.0316 µM
# [14] = second compound 0.316 µM, first compound 0.1 µM
# [15] = second compound 0.316 µM, first compound 0.316 µM
# [16] = second compound 0.316 µM, first compound 1 µM
# [17] = second compound 0.316 µM, first compound 3.16 µM
# [18] = second compound 0.316 µM, first compound 10 µM
# [19] = second compound 1 µM, first compound 0.0316 µM
# [20] = second compound 1 µM, first compound 0.1 µM
# [21] = second compound 1 µM, first compound 0.316 µM
# [22] = second compound 1 µM, first compound 1 µM
# [23] = second compound 1 µM, first compound 3.16 µM
# [24] = second compound 1 µM, first compound 10 µM
# [25] = second compound 3.16 µM, first compound 0.0316 µM
# [26] = second compound 3.16 µM, first compound 0.1 µM
# [27] = second compound 3.16 µM, first compound 0.316 µM
# [28] = second compound 3.16 µM, first compound 1 µM
# [29] = second compound 3.16 µM, first compound 3.16 µM
# [30] = second compound 3.16 µM, first compound 10 µM
# [31] = second compound 10 µM, first compound 0.0316 µM
# [32] = second compound 10 µM, first compound 0.1 µM
# [33] = second compound 10 µM, first compound 0.316 µM
# [34] = second compound 10 µM, first compound 1 µM
# [35] = second compound 10 µM, first compound 3.16 µM
# [36] = second compound 10 µM, first compound 10 µM
# 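Further: spheroids exposed to compounds for seven days before readout.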
smiles,measurement,setting,value
CCc1cc2c(N3CCc4c(cc(Cn5ccnc5)cc4-c4cn(C)nc4C(F)(F)F)C3=O)ccnc2c(OC)n1 + COC1C(OC(N)=O)C(O)C(Oc2ccc3c(O)c(NC(=O)c4ccc(O)c(CC=C(C)C)c4)c(=O)oc3c2C)OC1(C)C,IC50,second compound 0.0316 µM,4.02 µM
same,IC50,second compound 0.1 µM,3.41 µM
same,IC50,second compound 0.316 µM,2.73 µM
same,IC50,second compound 1 µM,2.6 µM
same,IC50,second compound 3.16 µM,2.05 µM
same,IC50,second compound 10 µM,2.22 µM
same,"viability, T/C",[1],83.6%
same,"viability, T/C",[2],95%
same,"viability, T/C",[3],83.4%
same,"viability, T/C",[4],69.5%
same,"viability, T/C",[5],55.9%
same,"viability, T/C",[6],34.5%
same,"viability, T/C",[7],88.2%
same,"viability, T/C",[8],82.8%
same,"viability, T/C",[9],84.1%
same,"viability, T/C",[10],66.8%
same,"viability, T/C",[11],52.6%
same,"viability, T/C",[12],28.5%
same,"viability, T/C",[13],93.3%
same,"viability, T/C",[14],80.3%
same,"viability, T/C",[15],93.2%
same,"viability, T/C",[16],75.1%
same,"viability, T/C",[17],46.7%
same,"viability, T/C",[18],31%
same,"viability, T/C",[19],87.9%
same,"viability, T/C",[20],76.9%
same,"viability, T/C",[21],71.2%
same,"viability, T/C",[22],65.1%
same,"viability, T/C",[23],46.6%
same,"viability, T/C",[24],28.6%
same,"viability, T/C",[25],89.5%
same,"viability, T/C",[26],90%
same,"viability, T/C",[27],68.9%
same,"viability, T/C",[28],67.3%
same,"viability, T/C",[29],40%
same,"viability, T/C",[30],28.1%
same,"viability, T/C",[31],99.3%
same,"viability, T/C",[32],76%
same,"viability, T/C",[33],80.3%
same,"viability, T/C",[34],72.9%
same,"viability, T/C",[35],39.3%
same,"viability, T/C",[36],31.9%
COc1cc2cc(C(=O)CCC(=O)O)sc2cc1OC + COC1C(OC(N)=O)C(O)C(Oc2ccc3c(O)c(NC(=O)c4ccc(O)c(CC=C(C)C)c4)c(=O)oc3c2C)OC1(C)C,IC50,second compound 0.0316 µM,> 10 µM
same,IC50,second compound 0.1 µM,> 10 µM
same,IC50,second compound 0.316 µM,> 10 µM
same,IC50,second compound 1 µM,> 10 µM
same,IC50,second compound 3.16 µM,> 10 µM
same,IC50,second compound 10 µM,> 10 µM
same,"viability, T/C",[1],105%
same,"viability, T/C",[2],97.2%
same,"viability, T/C",[3],115%
same,"viability, T/C",[4],106%
same,"viability, T/C",[5],99.8%
same,"viability, T/C",[6],101%
same,"viability, T/C",[7],83.2%
same,"viability, T/C",[8],111%
same,"viability, T/C",[9],105%
same,"viability, T/C",[10],98.8%
same,"viability, T/C",[11],111%
same,"viability, T/C",[12],88.2%
same,"viability, T/C",[13],115%
same,"viability, T/C",[14],101%
same,"viability, T/C",[15],110%
same,"viability, T/C",[16],106%
same,"viability, T/C",[17],113%
same,"viability, T/C",[18],101%
same,"viability, T/C",[19],104%
same,"viability, T/C",[20],105%
same,"viability, T/C",[21],90.5%
same,"viability, T/C",[22],109%
same,"viability, T/C",[23],99.5%
same,"viability, T/C",[24],94.6%
same,"viability, T/C",[25],98%
same,"viability, T/C",[26],102%
same,"viability, T/C",[27],110%
same,"viability, T/C",[28],111%
same,"viability, T/C",[29],114%
same,"viability, T/C",[30],86.4%
same,"viability, T/C",[31],104%
same,"viability, T/C",[32],107%
same,"viability, T/C",[33],105%
same,"viability, T/C",[34],104%
same,"viability, T/C",[35],95.7%
same,"viability, T/C",[36],82.8%
